# In patent US7687489B2, “Agent for treatment of cerebral ischemic diseases” (Ono Pharmaceutical Co., Ltd., priority 2001, dated 2010):
# How the values were obtained:
# [1] = test system: thrombin-induced focal cerebral ischemic model; test: Thrombin-induced focal cerebral ischemic model: survival and neurological symptom score; type: in vivo, male Wistar rats
# Method: Twenty male Wistar rats (8-weeks age) were used as one group. The rats were anesthetized with halothane, followed by incision and then subjected to carotid artery shunting. A polyethylene catheter containing thrombin (10 international units) was catheterized into the carotid artery, and […] of blood was sucked and reserved in the catheter for 10 minutes. Then, thrombus formed in the catheter was infused into the carotid artery together with thrombin (J. Cereb. Blood Flow Metab., 17, 123 (1997)).
# The neurological symptoms of said rats were scored according to the method as described in Brain Res., 452, 323 (1988). The evaluation of score was carried out at 6 hours, 24 hours, 48 hours and 72 hours after infusion of thrombin, and the scores were accumulated. The survival period was determined by monitoring surviving or dead rats at intervals of one hour for the first 72 hours after the infusion of thrombin.
# From forty minutes after thrombin infusion, t-PA (Activacin 100,000 international units, product of Kyowa Hakko Kogyo Co., Ltd.) was continuously administered in an amount of 33 μL/min to the anesthetized rats for 15 minutes. (R)-2-propyloctanoic acid (hereinafter referred to as compound A) in an amount of 10 mg/mL/kg was administered through tail vein of the rats three times at 6 hours, 24 hours and 48 hours after the infusion of thrombin.
# dogs = conditions: dog, in vivo, 100 mg/kg
# From the text: The toxicity of the astrocyte function-improving agent of the present invention is sufficiently very low and has been confirmed to be safe enough for pharmaceutical use.
# [2] = accumulated score, rats surviving 72 h, average ± standard error
smiles,measurement,setting,value
"CCCCCC[C@@H](CCC)C(=O)O [Compound A, (R)-2-propyloctanoic acid]",Survival rate after 72 hours,"[1]; 72 hours after thrombin infusion, 20 rats per group, * p<0.05 vs control (Log-rank test)",60.0%*^)
same,No. of surviving rats,"[1]; 72 hours after thrombin infusion, 20 rats per group, t-PA infused from 40 min for 15 min, compound A 10 mg/mL/kg i.v. at 6, 24, 48 h",12
same,"Neurological symptom score, 0 to 6 hours",[1]; [2],3.4 ± 0.1
same,"Neurological symptom score, 0 to 24 hours",[1]; [2],3.3 ± 0.1
same,"Neurological symptom score, 0 to 48 hours",[1]; [2],3.3 ± 0.1
same,"Neurological symptom score, 0 to 72 hours",[1]; [2],3.2 ± 0.2
same,Death after single intravenous administration,dogs,no death was observed
